Like-named read-outs stand apart in the source and are kept apart here.
Columns and labels:
[1] = Relative humidity stress (deliquescence, hygroscopicity); assay type: physicochemical
[2] = Example 7: high single doses in healthy human subjects (PK); assay type: in vivo; settings: fasted; for CL renal / AUC(0-inf) / Cmax / Tmax / Vd/F / half-life: both sexes, human; for CL renal: plasma and urine; for AUC(0-inf) / Cmax / Tmax / Vd/F / half-life: plasma; for Vd/F: read-out: Vz/F; for half-life: read-out: t½ (converted)
Protocol: Subjects were male and female healthy human volunteers aged between 18 and 50 years, free from clinically significant illness or disease as determined by their medical/surgical history, physical examination etc., and having a serum ferritin>20 ng/mL. Subjects were given, in the fasted state, either 30, 40, 50, or 60 mg/kg Compound 1 as a blended formulation of 96% (wt/wt) drug substance (powder) with 3% (wt/wt) croscarmellose sodium and 1% (wt/wt) magnesium stearate dispensed in hard gelatin capsules in strengths of 50 mg, 100 mg, 250 mg, and 375 mg.
The 30 and 50 mg/kg dose groups each contained seven subjects; data from only four of these subjects was used to calculate AUCinf, t½, CL/F, and VZ/F. The 40 and 60 mg/kg dose groups each contained three subjects; data from only three of these subjects was used to calculate AUCinf, t½, CL/F, and VZ/F.
Blood samples of approximately 7 mL were drawn via cannula at 0.25, 0.5, 0.75, 1, 1.25, 1.5, 2, 2.5, 4, 8, 12 and 24 hours post-dose, for pharmacokinetic analysis. (See FIG. 2.) Urine was collected over the time periods 0-4, 4-8, 8-12 and 12-24 hours post-dose for pharmacokinetic and pharmacodynamic assessment.
PK plasma and PK urine samples were assayed by a validated LC/MS/MS method, specific for the determination of Compound 1. Pharmacokinetic parameters for Compound 1 will be calculated using non-compartmental analysis. Only plasma and urine concentrations greater than the lower limits of quantitation (LOQ, 5 ng/mL in plasma and urine) for the assays will be used in the pharmacokinetic analysis.

[3] = test system: patients with transfusional iron overload; assay: Example 11: efficacy study, serum ferritin; assay type: in vivo, human
Protocol: The goal of this experiment was to: 1. evaluate the safety and tolerability based on clinical assessments of two doses (16 and 32 mg/kg/d) of Compound 1 when administered daily for 24 weeks to patients with transfusional iron overload; 2. identify a differential response between dose groups in liver iron concentration determined by magnetic resonance imaging (MRI) after 24 weeks of dosing; and 3. assess the safety and efficacy activity of Compound 1 when administered daily for up to 96 weeks.
This experiment is an open-label, randomized study of two dose levels (16 and 32 mg/kg/d) of Compound 1 administered once daily for 24 weeks to eligible patients with transfusional iron overload requiring chelation therapy, with a dosing extension of 72 additional weeks.
Patients were assigned to one of two strate: “high” or “low” transfusion burden based on the average iron intake of the six transfusion sessions. Patients within each transfusion burden groups were randomized to one of two Compound 1 treatment arms: 16 mg/kg/d (16 mpk) or 32 mg/kg/d (32 mpk). The stratification followed by randomization to treatment arms helps to ensure an equal distribution of patients with “high” and “low” transfusion burdens to the high or low dose of Compound 1. Each treatment arm received one dose of Compound 1 daily for 24 weeks.
At the conclusion of the 24 week dosing period, patients who qualify and consent to continue treatment continued for an additional 72 weeks of Compound 1 dosing.
The inclusion of 25 patients in each treatment group provided a statistical power of 0.80 to detect, within 6 months, an LIC difference (normalized for initial LIC) of 3 mg/g dry weight between the two dose groups as determined by MRI. Baseline characteristics between dose groups were compared using Fisher extract test or Wilcoxon rank sum test as appropriate. The change in baseline to week 12, 24, and 72 values for all pharmacodynamics parameters were analyzed by an ANCOVA model with main effect for treatment group with baselines value for the corresponding parameters and transfusion burdon (iron input) during the study and baseline liver iron concentration as covariates comparing the two active treatment groups. T2* values were natural log transformed and summarized as the geometric mean (the antilog of the mean of the log data) plus or minus the co-efficient of variation (CV) defined as square root of eMSE where MSE is defined as the mean square error and subject to ANCOVA setting the p value as the threshold for statistical significance at 0.05 (confidence level of 95%).

iron overloaded subjects = assay: Safety: single-dose Phase 1 study in iron-overloaded subjects; assay type: in vivo
Protocol: The objectives of this study were to assess the safety, tolerability, and pharmacokinetics of ascending single doses of Compound 1. Additionally, dose proportionality and pharmacodynamics of Compound 1 were assessed. Four doses of Compound 1 (6, 10, 16, and 32 mg/kg), in capsule form, were evaluated in this study. Each dose level was tested in a single subject, with appropriate evaluation of safety done prior to escalating the dose. Following screening, the first subject was dosed and then confined to the clinical research unit for 24 hours to conduct safety and pharmacokinetic assessments. The subject was released from the clinic on Day 2 and returned daily for follow-up visits for 5 days post-dosing. This process was followed for each dose level.
Four iron overloaded subjects were enrolled and completed the study. Each subject received a single oral dose of Compound 1. Doses were 6, 10, 16 and 32 mg/kg. […] Three TEAEs were reported for a single subject who received 32 mg/kg of Compound 1. All 3 TEAEs occurred at the site of venipuncture used for blood sampling: bruising at cannula site on the left arm and bruising at 2 venipuncture sites on the left arm and then the right arm.

What does the source list for `COCCOCCOCCOc1cccc(C2=N[C@@](C)(C(=O)O)CS2)c1O` [Compound 1, (S)-4,5-Dihydro-2-[2-hydroxy-3-(3,6,9-trioxadecyloxy)phenyl]-4-methyl-4-thiazolecarboxylate magnesium hydroxide]?
hygroscopicity [1]: non-hygroscopic; XRPD pattern after RH exposure ([1]; 75% RH for 8 days): remained unchanged; deliquescence ([1]; exposed to 75% RH for 8 days): did not deliquesce; CL renal ([2]; single oral dose 30 mg/kg): 139 ± 13.2 mL/min; CL renal ([2]; single oral dose 40 mg/kg): 152 ± 18 mL/min; CL renal ([2]; single oral dose 50 mg/kg): 103 ± 16.2 mL/min; CL renal ([2]; single oral dose 60 mg/kg): 146 ± 34.4 mL/min; AUC(0-inf) ([2]; single oral dose 30 mg/kg): 161 ± 24.1 µg·h/mL; Cmax ([2]; single oral dose 30 mg/kg): 68.2 ± 17.5 µg/mL; Tmax ([2]; single oral dose 30 mg/kg): 1 h; Vd/F ([2]; single oral dose 30 mg/kg): 248 ± 58.8 L; half-life ([2]; single oral dose 30 mg/kg): 12.1 ± 3.05 h; AUC(0-inf) ([2]; single oral dose 40 mg/kg): 195 ± 67.3 µg·h/mL; Cmax ([2]; single oral dose 40 mg/kg): 87.9 ± 15 µg/mL; Tmax ([2]; single oral dose 40 mg/kg): 1.38 h; Vd/F ([2]; single oral dose 40 mg/kg): 542 ± 657 L; half-life ([2]; single oral dose 40 mg/kg): 18.6 ± 19.2 h; AUC(0-inf) ([2]; single oral dose 50 mg/kg): 236 ± 58.3 µg·h/mL; Cmax ([2]; single oral dose 50 mg/kg): 91.7 ± 18.8 µg/mL; Tmax ([2]; single oral dose 50 mg/kg): 1.5 h; Vd/F ([2]; single oral dose 50 mg/kg): 338 ± 272 L; half-life ([2]; single oral dose 50 mg/kg): 12.8 ± 7.66 h; AUC(0-inf) ([2]; single oral dose 60 mg/kg): 227 ± 44.7 µg·h/mL; Cmax ([2]; single oral dose 60 mg/kg): 104 ± 36.7 µg/mL; Tmax ([2]; single oral dose 60 mg/kg): 1.25 h; Vd/F ([2]; single oral dose 60 mg/kg): 285 ± 159 L; half-life ([2]; single oral dose 60 mg/kg): 8.44 ± 3.83 h; CL/F ([2]; single oral dose 30 mg/kg): 239 ± 17.2 mL/min; CL/F ([2]; single oral dose 40 mg/kg): 290 ± 73.8 mL/min; CL/F ([2]; single oral dose 50 mg/kg): 286 ± 56.1 mL/min; CL/F ([2]; single oral dose 60 mg/kg): 381 ± 55.8 mL/min; Serum Ferritin Change from Baseline to Week 72, Geometric Mean ([3]; 16 mg/kg/d group): 1.14; Serum Ferritin Change from Baseline to Week 72, Mean ([3]; 16 mg/kg/d group): 233.21; Serum Ferritin Change from Baseline to Week 72, Median ([3]; 16 mg/kg/d group): 231.50; Serum Ferritin Week 72, Geometric Mean ([3]; 16 mg/kg/d group): 2418.49; Serum Ferritin Week 72, Mean ([3]; 16 mg/kg/d group): 2873.93; Serum Ferritin Week 72, Median ([3]; 16 mg/kg/d group): 2544.50; Serum Ferritin Change from Baseline to Week 72, Geometric Mean ([3]; 32 mg/kg/d group): 0.89; Serum Ferritin Change from Baseline to Week 72, Mean ([3]; 32 mg/kg/d group): −150.82; Serum Ferritin Change from Baseline to Week 72, Median ([3]; 32 mg/kg/d group): −436.00; Serum Ferritin Week 72, Geometric Mean ([3]; 32 mg/kg/d group): 2441.03; Serum Ferritin Week 72, Mean ([3]; 32 mg/kg/d group): 3026.82; Serum Ferritin Week 72, Median ([3]; 32 mg/kg/d group): 2396.00; Serum Ferritin Change from Baseline to Week 72, Geometric Mean ([3]; Total): 0.99; Serum Ferritin Change from Baseline to Week 72, Mean ([3]; Total): 22.61; Serum Ferritin Change from Baseline to Week 72, Median ([3]; Total): −56.00; Serum Ferritin Week 72, Geometric Mean ([3]; Total): 2430.83; Serum Ferritin Week 72, Mean ([3]; Total): 2957.77; Serum Ferritin Week 72, Median ([3]; Total): 2398.00; tolerability (iron overloaded subjects; single oral dose 6, 10, 16, 32 mg/kg): well tolerated; clinical laboratory assessments, vital sign measurements, ECG parameters (iron overloaded subjects; single oral dose 6-32 mg/kg): no clinically significant changes; deaths, SAEs, withdrawals due to AEs (iron overloaded subjects; single oral dose 6-32 mg/kg): no deaths, no serious adverse events (SAEs), and no withdrawals due to AEs; TEAEs reported (iron overloaded subjects; single subject who received 32 mg/kg, all at site of venipuncture): Three

— patent publication US8993606B2, “Oral formulations for treating metal overload” (FerroKin BioSciences, Inc., priority 2011, dated 2015)
